{"source": "ChEMBL document CHEMBL1799939", "about": "“Synthesis and biological evaluation of novel thiazolidinedione analogues as 15-hydroxyprostaglandin dehydrogenase inhibitors” (J Med Chem, 2011)", "key": {"[1]": {"biological_target": "T1, 15-hydroxyprostaglandin dehydrogenase [NAD(+)] (Homo sapiens, UniProt P15428)", "T1 sequence (P15428 whole entry)": "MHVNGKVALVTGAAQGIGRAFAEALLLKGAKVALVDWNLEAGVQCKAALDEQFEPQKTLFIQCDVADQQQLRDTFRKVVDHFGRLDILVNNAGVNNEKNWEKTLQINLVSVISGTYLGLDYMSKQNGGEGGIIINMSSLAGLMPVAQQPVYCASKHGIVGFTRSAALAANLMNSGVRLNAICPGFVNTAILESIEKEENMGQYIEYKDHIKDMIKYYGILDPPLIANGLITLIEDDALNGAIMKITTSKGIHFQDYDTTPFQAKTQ", "test": "Inhibition of human 15-PGDH expressed in Escherichia coli using PGE2 as substrate and NAD+ as coenzyme assessed as formation of NADH by spectrophotometric analysis"}, "Cavia porcellus [2]": {"tested_on": "Cavia porcellus", "test": "Increase in cochlear blood flow in guinea pig at 20 ug, iv measured after 50 mins", "assay_type": "functional"}, "A549 [3]": {"tested_on": "A549", "test": "Induction of PGT expression in human A549 cells at 5 uM after 25 hrs by RT-PCR analysis", "assay_type": "functional, cell-based"}, "[4]": {"biological_target": "T2, 15-hydroxyprostaglandin dehydrogenase [NAD(+)] (Homo sapiens) (UniProt P15428)", "T2 sequence (whole entry)": "T1 sequence (P15428 whole entry)", "test": "Inhibition of human 15-PGDH in human A549 cells assessed as increase in IL1-beta stimulated PGE2 production after 5 hrs by enzyme immunoassay", "assay_type": "cell-based"}, "A549 [5]": {"tested_on": "A549", "test": "Inhibition of COX1 expression in human A549 cells at 5 uM after 25 hrs by RT-PCR analysis", "assay_type": "functional, cell-based"}, "A549 [6]": {"tested_on": "A549", "test": "Effect on MRP4 expression in human A549 cells at 5 uM after 25 hrs by RT-PCR analysis", "assay_type": "functional, cell-based"}, "[7]": {"biological_target": "T2, 15-hydroxyprostaglandin dehydrogenase [NAD(+)] (Homo sapiens)", "test": "Inhibition of human 15-PGDH in human A549 cells assessed as increase in IL1-beta stimulated PGE2 production at 5 uM after 5 hrs by enzyme immunoassay", "assay_type": "cell-based"}, "Cavia porcellus [8]": {"tested_on": "Cavia porcellus", "test": "Increase in cochlear blood flow in guinea pig at 10 ug, iv measured after 40 mins", "assay_type": "functional"}, "A549 [9]": {"tested_on": "A549", "test": "Effect on COX2 expression in human A549 cells at 5 uM after 25 hrs by RT-PCR analysis", "assay_type": "functional, cell-based"}, "HaCaT": {"tested_on": "HaCaT", "test": "Wound healing activity in human HaCaT cells assessed as re-epithelialization at 5 uM after 48 hrs by inverted microscopic analysis relative to control", "assay_type": "functional, cell-based"}}, "note": "Active and inactive are the calls of the source. No cut-off for these calls is given here."}
{"smiles": "O=C1N=C(O)S/C1=C\\c1ccc(OCCCCC2CCCCC2)c(Cl)c1", "values": [{"measurement": "IC50", "setting": "[1]", "result": 24, "unit": "nM"}]}
{"smiles": "O=C1N=C(O)S/C1=C\\c1ccc(OCCCC2CCCCC2)c(Cl)c1", "values": [{"measurement": "IC50", "setting": "[1]", "result": 10, "unit": "nM"}]}
{"smiles": "COc1cc(/C=C2\\SC(=O)NC2=O)ccc1OCCC1CCCCC1", "values": [{"measurement": "Activity", "setting": "Cavia porcellus [2]", "result": 65, "unit": "%"}, {"measurement": "IC50", "setting": "[1]", "result": 25, "unit": "nM"}, {"measurement": "Activity", "setting": "A549 [3]", "result": "Active"}, {"measurement": "Activity", "setting": "[4]", "result": "Dose-dependent effect"}, {"measurement": "Activity", "setting": "A549 [5]", "result": "Active"}, {"measurement": "Activity", "setting": "A549 [6]", "result": "inactive"}, {"measurement": "Activity", "setting": "[7]", "result": "Active"}, {"measurement": "Activity", "setting": "Cavia porcellus [8]", "result": 22, "unit": "%"}, {"measurement": "Activity", "setting": "A549 [9]", "result": "inactive"}]}
{"smiles": "O=C1N=C(O)S/C1=C\\c1ccc(OCCC2CCCCC2)cc1", "values": [{"measurement": "Activity", "setting": "[7]", "result": "Active"}]}
{"smiles": "O=C1N=C(O)S/C1=C\\c1ccc(OCCC2CCCCC2)c(Br)c1", "values": [{"measurement": "IC50", "setting": "[1]", "result": 19, "unit": "nM"}, {"measurement": "Activity", "setting": "HaCaT", "result": "Active"}, {"measurement": "Activity", "setting": "[7]", "result": "Active"}]}
{"smiles": "COc1cc(/C=C2\\SC(=O)N(C)C2=O)ccc1OCCC1CCCCC1", "values": [{"measurement": "IC50", "setting": "[1]", "result": "> 50000", "unit": "nM"}, {"measurement": "Activity", "setting": "[4]", "result": "Dose-dependent effect"}]}
{"smiles": "O=C1NC(=O)/C(=C/c2ccc(OC3CCCCC3)c(Cl)c2)S1", "values": [{"measurement": "IC50", "setting": "[1]", "result": 47, "unit": "nM"}]}
{"smiles": "O=C1NC(=O)/C(=C/c2ccc(OCC3CCCCC3)c(Cl)c2)S1", "values": [{"measurement": "IC50", "setting": "[1]", "result": 28, "unit": "nM"}]}
{"smiles": "O=C1N=C(O)S/C1=C\\c1ccc(OCCC2CCCCC2)c(Cl)c1", "values": [{"measurement": "IC50", "setting": "[1]", "result": 8, "unit": "nM"}, {"measurement": "Activity", "setting": "A549 [3]", "result": "Active"}, {"measurement": "Activity", "setting": "A549 [5]", "result": "Active"}, {"measurement": "Activity", "setting": "A549 [6]", "result": "inactive"}, {"measurement": "Activity", "setting": "[7]", "result": "Active"}, {"measurement": "Activity", "setting": "A549 [9]", "result": "inactive"}]}
